Results reported in paper doi:10.1101/471615v1 (biorxiv, 2018).

Key:
Experiment in all cases: biochemical
EphA1 = target: T1, EphA1 (Homo sapiens, UniProt P21709)
T1 sequence (P21709 1-976): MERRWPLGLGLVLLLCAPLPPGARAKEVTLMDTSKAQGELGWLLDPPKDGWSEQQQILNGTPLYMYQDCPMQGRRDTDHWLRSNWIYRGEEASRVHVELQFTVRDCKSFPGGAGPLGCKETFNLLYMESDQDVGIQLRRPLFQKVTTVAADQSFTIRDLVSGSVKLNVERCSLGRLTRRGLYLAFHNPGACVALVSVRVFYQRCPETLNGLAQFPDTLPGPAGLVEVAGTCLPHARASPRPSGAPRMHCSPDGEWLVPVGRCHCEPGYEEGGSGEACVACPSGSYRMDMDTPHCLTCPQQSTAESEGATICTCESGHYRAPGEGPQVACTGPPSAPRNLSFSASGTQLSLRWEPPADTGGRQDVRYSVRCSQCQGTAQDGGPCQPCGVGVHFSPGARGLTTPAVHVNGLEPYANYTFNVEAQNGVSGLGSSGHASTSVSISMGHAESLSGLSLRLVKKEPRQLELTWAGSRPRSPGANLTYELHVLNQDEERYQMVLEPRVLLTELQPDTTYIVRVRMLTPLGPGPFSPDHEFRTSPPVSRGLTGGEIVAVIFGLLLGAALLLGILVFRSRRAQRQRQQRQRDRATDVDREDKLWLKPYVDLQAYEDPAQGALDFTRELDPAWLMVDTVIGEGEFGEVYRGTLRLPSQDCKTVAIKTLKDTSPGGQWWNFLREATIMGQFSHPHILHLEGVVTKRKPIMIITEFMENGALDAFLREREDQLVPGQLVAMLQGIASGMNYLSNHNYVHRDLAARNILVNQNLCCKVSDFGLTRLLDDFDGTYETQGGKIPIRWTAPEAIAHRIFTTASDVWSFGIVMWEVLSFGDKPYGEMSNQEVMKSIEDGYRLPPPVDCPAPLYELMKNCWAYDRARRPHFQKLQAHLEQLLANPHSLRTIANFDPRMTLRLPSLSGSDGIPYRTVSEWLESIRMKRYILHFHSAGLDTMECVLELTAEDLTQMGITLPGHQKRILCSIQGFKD

ACVR1 = target: T2, ACVR1 (Homo sapiens, UniProt Q04771)
T2 sequence (Q04771 1-509): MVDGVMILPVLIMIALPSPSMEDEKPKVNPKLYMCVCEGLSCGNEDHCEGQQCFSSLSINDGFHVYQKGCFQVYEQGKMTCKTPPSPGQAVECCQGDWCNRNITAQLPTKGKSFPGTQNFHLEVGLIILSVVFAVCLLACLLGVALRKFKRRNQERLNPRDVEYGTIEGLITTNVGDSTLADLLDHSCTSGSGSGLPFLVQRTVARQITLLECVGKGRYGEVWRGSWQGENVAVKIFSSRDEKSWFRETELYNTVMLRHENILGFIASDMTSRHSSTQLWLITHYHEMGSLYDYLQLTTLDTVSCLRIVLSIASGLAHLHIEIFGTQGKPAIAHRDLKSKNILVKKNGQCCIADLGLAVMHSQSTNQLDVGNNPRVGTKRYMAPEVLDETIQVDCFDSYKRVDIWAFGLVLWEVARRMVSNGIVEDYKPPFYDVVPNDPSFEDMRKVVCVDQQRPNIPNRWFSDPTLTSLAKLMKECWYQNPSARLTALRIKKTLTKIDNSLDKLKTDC

MEK5 = target: T3, MEK5 (Homo sapiens, UniProt Q13163)
T3 sequence (Q13163 1-448): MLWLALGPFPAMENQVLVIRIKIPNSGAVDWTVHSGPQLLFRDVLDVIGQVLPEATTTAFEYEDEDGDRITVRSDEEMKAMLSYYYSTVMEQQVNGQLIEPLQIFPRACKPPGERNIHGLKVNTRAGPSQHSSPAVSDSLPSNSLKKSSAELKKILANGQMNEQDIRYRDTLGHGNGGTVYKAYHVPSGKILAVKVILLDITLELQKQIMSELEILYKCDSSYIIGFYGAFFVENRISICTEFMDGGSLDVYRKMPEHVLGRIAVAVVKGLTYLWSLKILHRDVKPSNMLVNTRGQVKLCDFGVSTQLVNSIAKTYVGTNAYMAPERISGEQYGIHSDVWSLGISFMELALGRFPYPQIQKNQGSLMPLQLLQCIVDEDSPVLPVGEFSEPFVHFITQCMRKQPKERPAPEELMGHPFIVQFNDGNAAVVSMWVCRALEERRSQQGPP

TXK = target: T4, TXK (Homo sapiens, UniProt P42681)
T4 sequence (P42681 1-527): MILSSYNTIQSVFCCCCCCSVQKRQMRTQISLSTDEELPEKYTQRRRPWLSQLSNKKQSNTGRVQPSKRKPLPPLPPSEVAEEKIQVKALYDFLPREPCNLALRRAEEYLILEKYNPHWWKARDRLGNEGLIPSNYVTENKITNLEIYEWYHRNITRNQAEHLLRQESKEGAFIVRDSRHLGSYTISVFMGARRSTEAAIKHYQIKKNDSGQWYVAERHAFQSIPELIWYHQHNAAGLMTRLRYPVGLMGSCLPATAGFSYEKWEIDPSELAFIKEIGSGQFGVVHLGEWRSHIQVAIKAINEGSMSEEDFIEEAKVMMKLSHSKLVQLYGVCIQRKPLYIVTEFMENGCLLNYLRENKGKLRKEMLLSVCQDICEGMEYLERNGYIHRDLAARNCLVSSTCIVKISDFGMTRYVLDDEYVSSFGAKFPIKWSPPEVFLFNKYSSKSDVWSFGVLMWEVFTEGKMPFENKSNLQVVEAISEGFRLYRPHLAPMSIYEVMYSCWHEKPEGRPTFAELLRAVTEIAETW

[1] = target: receptor-interacting protein kinase 2, RIPK2 (Homo sapiens, UniProt O43353)
ABL1-non-Phos. = ABL1-non-Phos. (Homo sapiens, UniProt P00519)

Measured: Kd

Chain of ABL1-non-Phos. (P00519 whole entry): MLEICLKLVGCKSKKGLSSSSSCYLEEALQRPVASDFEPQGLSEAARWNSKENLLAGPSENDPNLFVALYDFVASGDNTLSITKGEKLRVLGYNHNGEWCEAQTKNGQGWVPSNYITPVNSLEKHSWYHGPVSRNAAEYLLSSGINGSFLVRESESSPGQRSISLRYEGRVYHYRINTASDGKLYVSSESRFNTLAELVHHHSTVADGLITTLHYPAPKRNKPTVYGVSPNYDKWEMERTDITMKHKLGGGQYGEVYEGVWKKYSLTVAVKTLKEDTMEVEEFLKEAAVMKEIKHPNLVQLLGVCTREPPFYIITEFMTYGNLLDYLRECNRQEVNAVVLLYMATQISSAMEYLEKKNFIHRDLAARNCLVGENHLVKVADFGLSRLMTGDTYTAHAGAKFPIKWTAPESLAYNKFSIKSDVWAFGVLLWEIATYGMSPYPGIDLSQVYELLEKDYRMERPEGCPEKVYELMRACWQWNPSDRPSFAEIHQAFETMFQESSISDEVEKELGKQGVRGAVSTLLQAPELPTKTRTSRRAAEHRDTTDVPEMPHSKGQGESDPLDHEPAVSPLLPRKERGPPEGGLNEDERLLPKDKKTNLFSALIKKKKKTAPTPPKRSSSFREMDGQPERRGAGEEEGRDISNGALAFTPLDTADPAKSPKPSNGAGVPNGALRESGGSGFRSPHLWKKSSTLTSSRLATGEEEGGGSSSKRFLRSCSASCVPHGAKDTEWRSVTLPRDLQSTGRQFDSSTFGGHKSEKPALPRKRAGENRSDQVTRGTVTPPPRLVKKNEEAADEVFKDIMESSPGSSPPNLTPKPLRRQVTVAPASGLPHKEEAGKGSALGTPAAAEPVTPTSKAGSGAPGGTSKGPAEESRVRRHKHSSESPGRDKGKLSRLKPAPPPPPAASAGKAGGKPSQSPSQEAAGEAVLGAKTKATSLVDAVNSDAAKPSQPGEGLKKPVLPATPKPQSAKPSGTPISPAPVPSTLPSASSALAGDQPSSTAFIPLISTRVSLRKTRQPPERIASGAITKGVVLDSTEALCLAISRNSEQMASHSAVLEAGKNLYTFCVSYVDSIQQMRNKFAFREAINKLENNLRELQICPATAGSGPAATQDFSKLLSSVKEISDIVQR
Chain of receptor-interacting protein kinase 2, RIPK2 (O43353 whole entry): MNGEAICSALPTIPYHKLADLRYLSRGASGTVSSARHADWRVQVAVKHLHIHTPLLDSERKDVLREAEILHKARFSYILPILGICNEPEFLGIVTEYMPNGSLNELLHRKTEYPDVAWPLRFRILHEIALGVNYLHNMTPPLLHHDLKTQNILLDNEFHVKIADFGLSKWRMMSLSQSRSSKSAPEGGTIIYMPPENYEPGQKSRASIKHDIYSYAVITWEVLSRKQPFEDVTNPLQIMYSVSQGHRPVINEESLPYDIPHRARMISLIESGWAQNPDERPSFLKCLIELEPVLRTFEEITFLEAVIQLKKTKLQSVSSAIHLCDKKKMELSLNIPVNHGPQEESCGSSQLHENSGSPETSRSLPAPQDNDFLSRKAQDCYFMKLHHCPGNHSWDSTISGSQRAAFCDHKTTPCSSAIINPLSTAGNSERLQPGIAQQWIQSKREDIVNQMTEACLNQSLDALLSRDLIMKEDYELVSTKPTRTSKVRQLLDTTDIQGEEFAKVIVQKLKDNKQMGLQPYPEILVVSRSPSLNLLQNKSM

COc1cc(N(C)c2ccnc3ccc(C(F)(F)F)cc23)cc(OC)c1OC [compound 21, negative control (21)]
> 10 µM: all assays above
